According to patent publication US11834453B2, “Substituted pyrimido[5,4-d]pyrimidines as HER2 inhibitors” (Array BioPharma Inc., priority 2020, dated 2023):
Like-named read-outs stand apart in the source and are kept apart here.

Legend:
[1] = molecular target: ErbB2 with Exon 20 YVMA insertion (HER2-YVMA) (Homo sapiens (Human), UniProt P04626, INS775YVMA); assay: Cellular phosphorylation assay, constitutive ErbB2 phosphorylation (Y1196) in engineered NIH 3T3 cells, Assay 4; format: cell-based
Method: Serially diluted compounds were added to the plates for 1 hour at 37° C./5% CO2. EGFR WT cells were stimulated with 100 ng/ml rEGF for an additional 10 minutes at 37° C./5% CO2. After compound incubation, medium was removed from the cells, which were then fixed in 3.7% formaldehyde in PBS at room temperature for 20 minutes. Following a wash with PBS, cells were permeabilized with 100% methanol at room temperature for 10 minutes. Cells were then washed with PBS/0.05% Tween-20 and blocked with Odyssey blocking buffer (LI-COR Biosciences) for at least 1 hour at room temperature. Antibodies to phosphorylated ErbB2 (Y1196, Cell Signaling #6942) or phosphorylated EGFR (Y1068, Cell Signaling #3777) and GAPDH (Millipore #MAB374) were added to the cells in blocking buffer containing 0.05% azide and incubated overnight at 4° C. After washing with PBS/0.05° i° Tween-20, the cells were incubated with fluorescently labeled secondary anti-rabbit antibody (LiCOR, IRDye 800CW #926-32211) and anti-mouse antibody (Molecular Probes, Alexa Fluor 680 #A21058) for 1 hour at room temperature in the dark. Cells were then washed and analyzed for fluorescence at both wavelengths using the Odyssey Infrared Imaging System (LI-COR Biosciences). Phosphorylated ErbB2 and EGFR signal was normalized to GAPDH signal to generate curves and calculate IC50 values.

EGFR = EGFR (Homo sapiens (Human), UniProt P00533); assay: ErbB enzyme assay (CisBio HTRF KinEASE-TK), Assay 3; format: biochemical
Method: (§1) Compound potencies were determined using CisBio's HTRF Kinease-TK assay technology. The kinases were incubated with 250 nM TK-substrate biotin (CisBio, part of cat #62TK0PEC) at 1 mM ATP along with test compounds in a buffer consisting of 25 mM HEPES, pH 7.4, 10 mM MgCl2, 0.01% Triton X-100, and 2% DMSO in a volume of 8 μL. Compounds were prepared as a three-fold serial dilution in DMSO and added to the assay to give the appropriate final concentration. After 30-minute incubation at 22° C., the reaction was quenched by adding 8 μL of quench solution containing 62.5 nM Sa-XL665 and 0.25× TK-Ab-Cryptate in HTRF detection buffer (all from CisBio, part of cat #62TK0PEC). After a 1-hour incubation at 22° C., the extent of reaction was determined using a PerkinElmer EnVision multimode plate reader via HTRF dual wavelength detection, and the percent of control (POC) was calculated using a ratiometric emission factor. One hundred POC was determined using DMSO only samples (no compound present), and 0 POC was determined using pre-quenched control reactions. A 4-parameter logistic curve was fit to the POC values as a function of the concentration of compound, and the IC50 value was the point where the best-fit curve crossed 50 POC.
(§2) Enzyme lots and concentration used are in Table 2.

ErbB2 WT = ErbB2 WT (Homo sapiens (Human), UniProt P04626); assay: ErbB enzyme assay (CisBio HTRF KinEASE-TK), Assay 2; format: biochemical
Method: as §1, with “Compounds were prepared as a three-fold serial dilution in DMSO and added to the assay to give the appropriate final concentration.” left out, “reactions.” for “reactions. A 4-parameter logistic curve was fit to the POC values as a function of the concentration of compound, and the IC50 value was the point where the best-fit curve crossed 50 POC.”
as §2

[2] = molecular target: ErbB2 insYVMA (HER2-YVMA, SEQ ID NO: 2) (Homo sapiens, UniProt P04626, INS775YVMA/P1170A); assay: biochemical; conditions: ErbB2 insYVMA enzyme assay
Sequence of ErbB2 insYVMA (HER2-YVMA, SEQ ID NO: 2) (P04626 with tags, fused parts or gaps INS775YVMA/P1170A limits assumed): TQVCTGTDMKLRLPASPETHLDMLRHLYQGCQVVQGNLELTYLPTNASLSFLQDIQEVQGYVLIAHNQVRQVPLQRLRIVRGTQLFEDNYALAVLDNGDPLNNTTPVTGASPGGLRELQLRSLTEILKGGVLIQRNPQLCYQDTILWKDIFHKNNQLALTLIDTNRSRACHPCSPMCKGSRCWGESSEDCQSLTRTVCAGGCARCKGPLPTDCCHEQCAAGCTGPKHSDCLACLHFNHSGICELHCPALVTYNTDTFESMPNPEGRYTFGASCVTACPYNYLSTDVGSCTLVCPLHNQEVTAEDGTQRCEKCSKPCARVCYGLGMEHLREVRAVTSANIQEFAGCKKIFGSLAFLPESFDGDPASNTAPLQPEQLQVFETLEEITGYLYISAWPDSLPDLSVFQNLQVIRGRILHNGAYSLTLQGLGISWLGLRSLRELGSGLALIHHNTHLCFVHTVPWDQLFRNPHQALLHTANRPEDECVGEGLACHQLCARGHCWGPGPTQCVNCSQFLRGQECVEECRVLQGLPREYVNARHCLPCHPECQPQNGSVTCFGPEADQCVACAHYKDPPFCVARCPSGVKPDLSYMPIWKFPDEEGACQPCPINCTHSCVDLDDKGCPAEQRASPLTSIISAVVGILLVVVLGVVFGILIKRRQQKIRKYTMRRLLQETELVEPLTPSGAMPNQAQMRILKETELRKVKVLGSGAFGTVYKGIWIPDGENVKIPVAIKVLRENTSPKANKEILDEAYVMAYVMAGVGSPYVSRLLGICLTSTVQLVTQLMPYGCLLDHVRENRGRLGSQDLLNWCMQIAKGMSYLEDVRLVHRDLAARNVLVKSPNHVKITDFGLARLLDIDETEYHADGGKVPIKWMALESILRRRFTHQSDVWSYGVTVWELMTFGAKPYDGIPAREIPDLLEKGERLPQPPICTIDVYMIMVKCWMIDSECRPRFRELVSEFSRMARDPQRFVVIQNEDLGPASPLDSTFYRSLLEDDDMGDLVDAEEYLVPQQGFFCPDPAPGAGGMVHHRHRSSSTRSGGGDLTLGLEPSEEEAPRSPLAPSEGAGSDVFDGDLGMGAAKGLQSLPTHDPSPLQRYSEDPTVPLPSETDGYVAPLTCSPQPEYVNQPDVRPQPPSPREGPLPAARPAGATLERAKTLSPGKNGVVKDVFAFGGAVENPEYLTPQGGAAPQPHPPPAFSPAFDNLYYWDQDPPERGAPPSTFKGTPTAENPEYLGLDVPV

Sequence of ErbB2 with Exon 20 YVMA insertion (HER2-YVMA) (P04626 other isoform, or with tags, fused parts or gaps ins YVMA behind 775): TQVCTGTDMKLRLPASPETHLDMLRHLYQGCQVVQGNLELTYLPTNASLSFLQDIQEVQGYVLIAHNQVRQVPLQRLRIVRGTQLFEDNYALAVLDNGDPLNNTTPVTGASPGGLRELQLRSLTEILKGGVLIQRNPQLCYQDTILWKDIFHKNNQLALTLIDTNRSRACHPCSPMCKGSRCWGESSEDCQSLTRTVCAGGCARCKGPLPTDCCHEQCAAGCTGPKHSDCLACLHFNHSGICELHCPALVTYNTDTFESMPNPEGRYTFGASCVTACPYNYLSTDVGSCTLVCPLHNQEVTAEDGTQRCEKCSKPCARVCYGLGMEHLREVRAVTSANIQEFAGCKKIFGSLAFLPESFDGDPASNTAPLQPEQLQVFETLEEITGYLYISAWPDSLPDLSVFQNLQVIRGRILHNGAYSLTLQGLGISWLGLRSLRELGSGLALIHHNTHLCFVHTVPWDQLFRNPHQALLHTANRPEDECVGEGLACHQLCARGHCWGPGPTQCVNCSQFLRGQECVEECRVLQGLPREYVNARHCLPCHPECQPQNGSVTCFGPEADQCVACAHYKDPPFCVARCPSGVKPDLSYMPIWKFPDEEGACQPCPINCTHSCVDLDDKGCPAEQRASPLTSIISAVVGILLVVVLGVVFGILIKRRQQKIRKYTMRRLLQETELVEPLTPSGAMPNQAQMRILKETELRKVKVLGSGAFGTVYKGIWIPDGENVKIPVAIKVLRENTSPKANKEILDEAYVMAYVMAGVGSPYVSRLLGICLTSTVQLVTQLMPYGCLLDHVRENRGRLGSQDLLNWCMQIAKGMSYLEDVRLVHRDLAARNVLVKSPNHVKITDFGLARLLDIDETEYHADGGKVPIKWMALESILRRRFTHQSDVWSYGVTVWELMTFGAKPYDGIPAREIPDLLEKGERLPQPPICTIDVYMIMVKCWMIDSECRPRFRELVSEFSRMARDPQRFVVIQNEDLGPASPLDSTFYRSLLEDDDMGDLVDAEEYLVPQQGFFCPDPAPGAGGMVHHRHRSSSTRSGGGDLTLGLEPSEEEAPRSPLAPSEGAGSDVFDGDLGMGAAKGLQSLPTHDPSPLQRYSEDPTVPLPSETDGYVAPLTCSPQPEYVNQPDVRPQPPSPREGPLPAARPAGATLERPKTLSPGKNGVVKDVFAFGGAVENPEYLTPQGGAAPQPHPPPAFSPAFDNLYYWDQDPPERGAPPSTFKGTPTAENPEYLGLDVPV
Sequence of ErbB2 WT (P04626 23-1255): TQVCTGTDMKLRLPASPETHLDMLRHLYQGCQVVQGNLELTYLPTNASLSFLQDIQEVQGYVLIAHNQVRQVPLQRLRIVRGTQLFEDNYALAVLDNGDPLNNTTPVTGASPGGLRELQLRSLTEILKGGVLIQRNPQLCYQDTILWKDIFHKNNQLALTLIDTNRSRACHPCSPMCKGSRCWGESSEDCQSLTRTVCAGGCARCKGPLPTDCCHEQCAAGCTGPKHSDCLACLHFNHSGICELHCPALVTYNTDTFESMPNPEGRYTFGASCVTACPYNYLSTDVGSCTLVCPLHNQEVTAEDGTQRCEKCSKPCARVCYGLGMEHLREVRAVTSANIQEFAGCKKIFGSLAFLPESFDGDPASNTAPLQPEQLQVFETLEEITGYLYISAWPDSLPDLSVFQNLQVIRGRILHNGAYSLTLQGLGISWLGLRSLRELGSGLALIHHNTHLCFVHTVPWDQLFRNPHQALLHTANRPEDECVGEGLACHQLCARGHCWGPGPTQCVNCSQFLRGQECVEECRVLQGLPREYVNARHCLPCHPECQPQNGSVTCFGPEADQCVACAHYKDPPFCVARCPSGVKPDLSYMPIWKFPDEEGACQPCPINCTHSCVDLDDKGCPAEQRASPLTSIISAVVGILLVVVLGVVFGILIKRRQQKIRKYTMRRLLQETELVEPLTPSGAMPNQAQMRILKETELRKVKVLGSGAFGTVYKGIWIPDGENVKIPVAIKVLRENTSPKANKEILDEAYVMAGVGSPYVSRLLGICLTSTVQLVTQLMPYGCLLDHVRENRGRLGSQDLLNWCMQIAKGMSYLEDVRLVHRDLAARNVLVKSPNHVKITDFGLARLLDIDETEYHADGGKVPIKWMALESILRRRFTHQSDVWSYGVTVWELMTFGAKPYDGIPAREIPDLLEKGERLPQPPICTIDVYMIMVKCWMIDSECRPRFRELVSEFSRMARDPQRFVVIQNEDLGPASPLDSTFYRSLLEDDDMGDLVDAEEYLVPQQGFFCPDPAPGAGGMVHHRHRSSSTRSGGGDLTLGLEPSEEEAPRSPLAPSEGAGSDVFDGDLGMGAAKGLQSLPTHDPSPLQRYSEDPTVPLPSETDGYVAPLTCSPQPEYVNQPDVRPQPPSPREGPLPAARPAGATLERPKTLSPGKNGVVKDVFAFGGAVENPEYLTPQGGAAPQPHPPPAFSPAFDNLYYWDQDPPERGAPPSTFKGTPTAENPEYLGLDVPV
Sequence of EGFR (P00533 25-1210): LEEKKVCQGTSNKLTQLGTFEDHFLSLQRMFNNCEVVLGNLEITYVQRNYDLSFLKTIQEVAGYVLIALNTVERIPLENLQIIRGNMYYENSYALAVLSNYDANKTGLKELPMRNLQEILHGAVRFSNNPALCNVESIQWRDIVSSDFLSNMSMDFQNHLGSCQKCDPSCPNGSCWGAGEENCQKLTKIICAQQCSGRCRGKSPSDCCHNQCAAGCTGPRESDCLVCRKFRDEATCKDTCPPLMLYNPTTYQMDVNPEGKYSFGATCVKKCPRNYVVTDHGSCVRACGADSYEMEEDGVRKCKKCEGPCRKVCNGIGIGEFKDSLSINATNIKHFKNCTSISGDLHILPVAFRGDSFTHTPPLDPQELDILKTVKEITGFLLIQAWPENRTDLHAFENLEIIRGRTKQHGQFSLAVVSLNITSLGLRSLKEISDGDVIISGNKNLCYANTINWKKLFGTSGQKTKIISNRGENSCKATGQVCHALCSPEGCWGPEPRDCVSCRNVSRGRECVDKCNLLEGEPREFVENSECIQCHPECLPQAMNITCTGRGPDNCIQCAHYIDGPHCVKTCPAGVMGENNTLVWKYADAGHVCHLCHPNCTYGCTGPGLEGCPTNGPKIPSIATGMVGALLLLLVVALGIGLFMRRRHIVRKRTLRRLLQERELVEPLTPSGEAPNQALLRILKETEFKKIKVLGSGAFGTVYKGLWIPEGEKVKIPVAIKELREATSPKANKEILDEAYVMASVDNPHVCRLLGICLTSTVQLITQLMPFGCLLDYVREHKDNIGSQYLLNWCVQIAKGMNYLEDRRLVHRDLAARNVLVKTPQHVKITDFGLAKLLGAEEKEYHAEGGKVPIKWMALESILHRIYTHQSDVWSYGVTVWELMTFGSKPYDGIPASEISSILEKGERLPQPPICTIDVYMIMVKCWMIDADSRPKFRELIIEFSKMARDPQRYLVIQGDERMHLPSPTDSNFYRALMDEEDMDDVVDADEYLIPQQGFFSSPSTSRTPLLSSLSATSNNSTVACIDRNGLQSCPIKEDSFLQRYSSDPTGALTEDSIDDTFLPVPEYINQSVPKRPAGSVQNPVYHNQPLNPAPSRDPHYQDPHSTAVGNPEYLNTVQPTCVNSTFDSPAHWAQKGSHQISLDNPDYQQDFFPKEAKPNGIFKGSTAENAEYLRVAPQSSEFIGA

Structure (SMILES) | IC50 [1] | IC50 (EGFR) | IC50 (ErbB2 WT) | IC50 ([2]; read-out: Assay 1 IC50) | IC50 ([2]; Assay 1 IC50 (nM))
Cc1cc(Nc2ncnc3cnc(N4CCCC(OC(F)F)C4)nc23)ccc1Oc1ccc2c(c1)ncn2C (racemic) [Example 40, 6-(3-(difluoromethoxy)piperidin-1-yl)-N-(3-methyl-4-((1-methyl-1H-benzo[d]imidazol-5-yl)oxy)phenyl)pyrimido[5,4-d]pyrimidin-4-amine] | 91.5 nM | ≥ 10000 nM | 145 nM | 71.5 nM | –
Cc1cc(Nc2ncnc3cnc(N4CC5(CCOC5)C4)nc23)ccc1Oc1ccc2c(c1)ncn2C [Example 21, N-(3-methyl-4-((1-methyl-1H-benzo[d]imidazol-5-yl)oxy)phenyl)-6-(6-oxa-2-azaspiro[3.4]octan-2-yl)pyrimido[5,4-d]pyrimidin-4-amine] | 82.7 nM | 1000 nM | 98.4 nM | 33.7 nM | –
CC(=O)N1CC2CC(C1)N2c1ncc2ncnc(Nc3ccc(Oc4ccc5c(c4)ncn5C)c(C)c3)c2n1 [Example 23, 1-(6-(8-((3-methyl-4-((1-methyl-1H-benzo[d]imidazol-5-yl)oxy)phenyl)amino)pyrimido[5,4-d]pyrimidin-2-yl)-3,6-diazabicyclo[3.1.1]heptan-3-yl)ethan-1-one] | 717 nM | ≥ 10000 nM | 1340 nM | 313 nM | –
Cc1cc(Nc2ncnc3cnc(N4CC5CC(C4)N5C)nc23)ccc1Oc1ccc2c(c1)ncn2C [Example 33, N-(3-methyl-4-((1-methyl-1H-benzo[d]imidazol-5-yl)oxy)phenyl)-6-(6-methyl-3,6-diazabicyclo[3.1.1]heptan-3-yl)pyrimido[5,4-d]pyrimidin-4-amine] | 583 nM | ≥ 10000 nM | 371 nM | 100 nM | –
Cc1cc(Nc2ncnc3cnc(N4CC(C(F)F)C4)nc23)ccc1Oc1ccc2c(c1)ncn2C [Example 37, 6-(3-(difluoromethyl)azetidin-1-yl)-N-(3-methyl-4-((1-methyl-1H-benzo[d]imidazol-5-yl)oxy)phenyl)pyrimido[5,4-d]pyrimidin-4-amine] | 174 nM | ≥ 10000 nM | 393 nM | 78.8 nM | –
Cc1cc(Nc2ncnc3cnc(N4CC5CC(C5)C4)nc23)ccc1Oc1ccc2c(c1)ncn2C [Example 39, 6-(3-azabicyclo[3.1.1]heptan-3-yl)-N-(3-methyl-4-((1-methyl-1H-benzo[d]imidazol-5-yl)oxy)phenyl)pyrimido[5,4-d]pyrimidin-4-amine] | 292 nM | ≥ 10000 nM | 358 nM | 199 nM | –
Cc1cnc(-c2ncc3ncnc(Nc4ccc(Oc5ccc6c(c5)ncn6C)c(C)c4)c3n2)s1 [Example 41, N-(3-methyl-4-((1-methyl-1H-benzo[d]imidazol-5-yl)oxy)phenyl)-6-(5-methylthiazol-2-yl)pyrimido[5,4-d]pyrimidin-4-amine] | 53 nM | ≥ 10000 nM | 234 nM | 196 nM | –
COC1CN(c2ncc3ncnc(Nc4ccc(Oc5ccc6c(c5)ncn6C)c(C)c4)c3n2)C1 [Example 43, 6-(3-methoxyazetidin-1-yl)-N-(3-methyl-4-((1-methyl-1H-benzo[d]imidazol-5-yl)oxy)phenyl)pyrimido[5,4-d]pyrimidin-4-amine] | 92.1 nM | ≥ 10000 nM | 59.8 nM | 28.8 nM | –
Cc1cc(Nc2ncnc3cnc(NC4CCC4(F)F)nc23)ccc1Oc1ccc2c(c1)ncn2C (stereo not shown) [Example 52, N2-(2,2-difluorocyclobutyl)-N8-(3-methyl-4-((1-methyl-1H-benzo[d]imidazol-5-yl)oxy)phenyl)pyrimido[5,4-d]pyrimidine-2,8-diamine] | 160 nM | ≥ 10000 nM | 317 nM | 100 nM | –
Cc1cc(Nc2ncnc3cnc(N4CCC[C@H]4C(F)F)nc23)ccc1Oc1ccc2c(c1)ncn2C [Example 55, (S)-6-(2-(difluoromethyl)pyrrolidin-1-yl)-N-(3-methyl-4-((1-methyl-1H-benzo[d]imidazol-5-yl)oxy)phenyl)pyrimido[5,4-d]pyrimidin-4-amine] | 98.4 nM | ≥ 10000 nM | 260 nM | 110 nM | –
Cc1cc(Nc2ncnc3cnc(N4CCC[C@@H]4C(F)F)nc23)ccc1Oc1ccc2c(c1)ncn2C [Example 56, (R)-6-(2-(difluoromethyl)pyrrolidin-1-yl)-N-(3-methyl-4-((1-methyl-1H-benzo[d]imidazol-5-yl)oxy)phenyl)pyrimido[5,4-d]pyrimidin-4-amine] | 105 nM | ≥ 10000 nM | 403 nM | 205 nM | –
Cc1cc(Nc2ncnc3cnc(N[C@@H](C)COC(F)(F)F)nc23)ccc1Oc1ccc2c(c1)ncn2C [Example 63, (S)—N8-(3-methyl-4-((1-methyl-1H-benzo[d]imidazol-5-yl)oxy)phenyl)-N2-(1-(trifluoromethoxy)propan-2-yl)pyrimido[5,4-d]pyrimidine-2,8-diamine] | 191 nM | ≥ 10000 nM | 862 nM | 195 nM | –
Cc1cc(Nc2ncnc3cnc(N[C@H](C)COC(F)(F)F)nc23)ccc1Oc1ccc2c(c1)ncn2C [Example 64, (R)—N8-(3-methyl-4-((1-methyl-1H-benzo[d]imidazol-5-yl)oxy)phenyl)-N2-(1-(trifluoromethoxy)propan-2-yl)pyrimido[5,4-d]pyrimidine-2,8-diamine] | 324 nM | ≥ 10000 nM | 1300 nM | 157 nM | –
Cc1cc(Nc2ncnc3cnc(N4C[C@H](C)O[C@@H](C)C4)nc23)ccc1Oc1ccc2c(c1)ncn2C [Example 72, 6-((2S,6S)-2,6-dimethylmorpholino)-N-(3-methyl-4-((1-methyl-1H-benzo[d]imidazol-5-yl)oxy)phenyl)pyrimido[5,4-d]pyrimidin-4-amine] | 76.6 nM | ≥ 10000 nM | 83.9 nM | – | 69.6 nM
Cc1cc(Nc2ncnc3cnc(O[C@@H]4CNC[C@@H]4F)nc23)ccc1Oc1ccc2c(c1)ncn2C [Example 86, 6-(((3R,4S)-4-fluoropyrrolidin-3-yl)oxy)-N-(3-methyl-4-((1-methyl-1H-benzo[d]imidazol-5-yl)oxy)phenyl)pyrimido[5,4-d]pyrimidin-4-amine] | 261 nM | ≥ 10000 nM | 301 nM | – | –
Cc1cc(Nc2ncnc3cnc(N(C)c4cnn(C)c4)nc23)ccc1Oc1ccc2c(c1)ncn2C [Example 108, N2-methyl-N2-(1-methyl-1H-pyrazol-4-yl)-N8-(3-methyl-4-((1-methyl-1H-benzo[d]imidazol-5-yl)oxy)phenyl)pyrimido[5,4-d]pyrimidine-2,8-diamine] | – | 4310 nM | 38.9 nM | 38.4 nM | –
Cc1c(Oc2ccn3ncnc3c2)ccc(Nc2ncnc3cnc(N4C[C@@H]5CC4CO5)nc23)c1F [Example 313] | – | – | 40.4 nM | 21.3 nM | –
Cc1cc(Nc2ncnc3cnc(N(C)Cc4ccccc4)nc23)ccc1Oc1ccc2c(c1)ncn2C [Example 331] | – | ≥ 10000 nM | 389 nM | 406 nM | –
Cc1cc(Nc2ncnc3cnc(N(C)C4CCCOC4)nc23)ccc1Oc1ccc2c(c1)ncn2C (stereo not shown) [Example 473] | – | – | 20 nM | 21.6 nM | –
Cc1cc(Nc2ncnc3cnc(N4CCN(C)[C@H](C)C4)nc23)ccc1Oc1ccc2c(c1)ncn2C [Example 490] | – | ≥ 10000 nM | – | – | –
